Experimental data from patent US7226915B2, “Diaminopyrroloquinazolines compounds as protein tyrosine phosphatase inhibitors” (Hoffmann-La Roche Inc., priority 2003, dated 2007).
Where a name gives a salt, the structure may show the parent alone.

Molecular target: T1, Human PTP1B (1-321) (Homo sapiens, UniProt P18031)
T1 construct: Human PTP1B (1-321) was cloned from a human cDNA library; made in house; host or cells: E. coli
T1 sequence (P18031 1-321): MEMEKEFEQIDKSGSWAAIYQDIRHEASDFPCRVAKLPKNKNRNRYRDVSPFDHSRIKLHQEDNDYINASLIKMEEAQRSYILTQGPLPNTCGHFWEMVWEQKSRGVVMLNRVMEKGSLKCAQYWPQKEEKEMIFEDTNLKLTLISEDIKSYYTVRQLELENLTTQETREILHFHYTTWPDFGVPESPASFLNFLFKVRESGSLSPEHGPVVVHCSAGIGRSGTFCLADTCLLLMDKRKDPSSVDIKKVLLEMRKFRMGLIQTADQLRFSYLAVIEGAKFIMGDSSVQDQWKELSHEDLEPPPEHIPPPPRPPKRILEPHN
Test: In vitro inhibition of PTP1B (PTPase assay)
Assay type: biochemical
Settings: one of two methods: phosphopeptide substrate TRDI(pY)E with Malachite Green, or DiFMUP fluorescence; pH 6.2; read-out: IC50 (PTP1B inhibitory activity)
Experimental: Human PTP1B (1-321) was cloned from a human cDNA library using conventional molecular biology techniques. The cDNA sequence was identical to the published human PTP1B sequence (Accession number M33689). The protein was expressed and purified from E. coli as described by Barford D. et. al J. Mol Biol (1994) 239, 726–730.
The measurement of PTPase activity was carried out using one of two methods:
The first method for the measurement of PTP1B inhibitory activity a tyrosine phosphorylated peptide based on the amino acid sequence of insulin receptor tyrosine autophosphorylation site 1146 (TRDI(pY)E) was used as substrate. The reaction conditions were as follows:
PTP1B (0.5–2 nM) was incubated with compound for 15 min in buffer containing 37.5 mM Bis-Tris buffer pH 6.2, 140 mMNaCl, 0.05% BSA and 2 mM DTT. The reaction was started by the addition of 50 μM substrate. After 20 min at room temperature (22–25° C.), the reaction was stopped with KOH and the amount of free phosphate measured using Malachite Green as previously described (Harder et al. 1994 Biochem J. 298; 395).
The second method was used for the measurement of general PTPase inhibitory activity across a panel of PTPases the substrate (6,8-difluoro-4-methylumbelliferyl phosphate (DiFMUP; from Molecular Probes) was used at the Km for each enzyme. The buffer conditions were identical as in the Malachite Green assay. The reaction was stopped with KOH. In this case the dephosphoryated product becomes fluorescent and the fluorescense read (Excitiation:360 mM/Emmission: 460 nM).

SMILES	IC50
Nc1nc(NCCO)c2c(cc(-c3ccccc3C(F)(F)F)c3c2ccn3CCO)n1 [Example 8, 2-[3-Amino-7-(2-hydroxy-ethyl)-6-(2-trifluoromethyl-phenyl)-7H-pyrrolo[3,2-f]quinazolin-1-ylamino]-ethanol trifluoro-acetic acid salt]	11.3 µM
CN(C)c1nc(N)nc2cc(-c3ccccc3C(F)(F)F)c3c(ccn3C)c12 [Example 4, 7,N1,N1-Trimethyl-6-(2-trifluoromethyl-phenyl)-7H-pyrrolo[3,2-f]quinazoline-1,3-diamine trifluoro-acetic acid salt]	9.47 µM
Cn1ccc2c3c(NCCCO)nc(N)nc3cc(-c3ccccc3C(F)(F)F)c21 [Example 6, 3-[3-Amino-7-methyl-6-(2-trifluoromethyl-phenyl)-7H-pyrrolo[3,2-f]quinazolin-1-ylamino]-propan-1-ol trifluoro-acetic acid salt]	10.2 µM
Cc1ccc(-c2cc3nc(N)nc(NCCO)c3c3ccn(C)c23)s1 [Example 2, 2-[3-Amino-7-methyl-6-(5-methyl-thiophen-2-yl)-7H-pyrrolo[3,2-f]quinazolin-1-ylamino]-ethanol trifluoro-acetic acid salt]	7.1 µM
